As usually defined, the IC50 is the concentration that gives 50% inhibition.

Data set [1] deals with T1, Pancreatic alpha-amylase (Sus scrofa, UniProt P00690).
T1 sequence (P00690 whole entry): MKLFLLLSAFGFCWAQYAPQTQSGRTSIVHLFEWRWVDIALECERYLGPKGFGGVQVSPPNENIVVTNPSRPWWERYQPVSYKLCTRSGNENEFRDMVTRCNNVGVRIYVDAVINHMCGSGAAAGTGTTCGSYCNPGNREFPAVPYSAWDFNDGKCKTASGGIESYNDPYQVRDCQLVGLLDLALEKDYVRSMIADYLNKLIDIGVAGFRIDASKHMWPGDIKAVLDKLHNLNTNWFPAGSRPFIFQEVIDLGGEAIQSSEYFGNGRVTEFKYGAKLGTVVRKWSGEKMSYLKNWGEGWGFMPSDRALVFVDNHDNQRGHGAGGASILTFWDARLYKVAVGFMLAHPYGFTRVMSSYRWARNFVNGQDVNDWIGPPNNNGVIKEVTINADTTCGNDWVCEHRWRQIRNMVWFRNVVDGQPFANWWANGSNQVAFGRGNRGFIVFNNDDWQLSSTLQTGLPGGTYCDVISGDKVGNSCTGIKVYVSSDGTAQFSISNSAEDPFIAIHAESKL
In words: Inhibition of porcine pancreatic alpha-amylase using starch as substrate after 30 mins by iodine reagent based assay.

Data set [2] can be described thus: Inhibition of rat intestinal alpha-glucosidase using p-nitrophenyl alpha-D-glucopyranoside as substrate pretreated for 10 mins followed by substrate addition measured after 5 mins.
The test system of data set [3] is L6. In words: Cytotoxicity against rat L6 cells up to 50 uM after 24 hrs by MTT assay. Particulars: l6, 24 h. The format is cell-based.
In data set [4] the target is Albumin (Bos taurus, UniProt P02769). In words: Antiglycation activity in bovine serum albumin assessed as inhibition of advanced glycated end product formation after 24 hrs in presence of alpha-D-glucose by fluorescence assay.
Albumin, sequence (P02769 whole entry): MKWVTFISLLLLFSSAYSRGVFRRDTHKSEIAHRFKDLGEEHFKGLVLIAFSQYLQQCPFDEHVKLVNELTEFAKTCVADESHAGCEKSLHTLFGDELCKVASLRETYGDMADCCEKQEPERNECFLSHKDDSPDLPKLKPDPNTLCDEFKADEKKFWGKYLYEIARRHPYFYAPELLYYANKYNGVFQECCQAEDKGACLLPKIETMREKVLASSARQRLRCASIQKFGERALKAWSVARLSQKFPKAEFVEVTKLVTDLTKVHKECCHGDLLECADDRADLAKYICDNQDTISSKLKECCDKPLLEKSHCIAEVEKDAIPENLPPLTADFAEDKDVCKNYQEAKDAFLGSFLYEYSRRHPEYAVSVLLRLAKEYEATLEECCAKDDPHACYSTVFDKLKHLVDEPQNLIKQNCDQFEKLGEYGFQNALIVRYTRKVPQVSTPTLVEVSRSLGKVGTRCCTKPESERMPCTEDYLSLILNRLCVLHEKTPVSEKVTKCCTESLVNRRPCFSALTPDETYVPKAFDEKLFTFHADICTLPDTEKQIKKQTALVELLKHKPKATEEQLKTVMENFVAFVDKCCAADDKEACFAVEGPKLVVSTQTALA
Data set [5] concerns L6. In words: Antidiabetic activity in rat L6 cells assessed as effect on 2-NBDG uptake at 10 uM pretreated for 24 hrs followed by 2-NBDG addition after 30 mins by FACS (reference value: 20%). The format is functional.
The subject of data set [6] is L6. Briefly: Antidiabetic activity in rat L6 cells assessed as effect on 2-NBDG uptake at 25 uM pretreated for 24 hrs followed by 2-NBDG addition after 30 mins by FACS (reference value: 20%). It is filed as functional. (In general: In flow cytometry, cells or beads pass a laser one at a time.)
For data set [7], the system named is L6. In words: Antidiabetic activity in rat L6 cells assessed as effect on 2-NBDG uptake at 50 uM pretreated for 24 hrs followed by 2-NBDG addition after 30 mins by FACS (reference value: 20%). It is filed as functional.
Data set [8] relates to L6. In words: Antidiabetic activity in rat L6 cells assessed as increase in 2-NBDG uptake pretreated for 24 hrs followed by 2-NBDG addition after 30 mins by FACS. The format is functional, cell-based.
Data set [9] deals with L6. Briefly: Antidiabetic activity in rat L6 cells assessed as effect on 2-NBDG uptake at 100 uM pretreated for 24 hrs followed by 2-NBDG addition after 30 mins by FACS (reference value: 20%). It is filed as functional.

As to `COc1cccc(O)c1C(=O)CCCCCCCCc1ccc(O)cc1`, the IC50 was 32.3 µM in data set [1], 94.5 µM in [2] and 104 µM in data set [4]. Moreover, the Activity entry was “Non-Toxic” in data set [3]; 18.3% in data set [5]; 34.1% in [6]; 34.6% in data set [7]; “Dose-dependent effect” in data set [8].

For `CN(C)C(=N)NC(=N)N` [METFORMIN], the Activity in data set [9] came out at 36.6%.

As to `CCCCCCCCCCCCCC(=O)c1c(O)cccc1OC`, the figures for the IC50 in [1], in data set [2] and in data set [4] were 39 µM, 257 µM and 192 µM, respectively. Besides, the Activity entry in [3] was “Non-Toxic”; in [5] it was 21.2%; in data set [6], 28%; in data set [7], 34.7%; in data set [8], “Dose-dependent effect”.

Turning to `CCCCCCCCCCCCCC(=O)c1c(O)cccc1O`, the IC50 in data set [1] is 74.1 µM; in [2], 172 µM; in [4] it was 121 µM. Moreover, the Activity entry was “Non-Toxic” in data set [3]; 32.9% in data set [5]; 34.1% in data set [6]; 36.3% in data set [7]; “Dose-dependent effect” in data set [8].

Regarding `CCCCCCCCCCCCC(=O)c1cccc(C(=O)O)c1`, the IC50 in data set [1] turned out to be 36.6 µM; in [2] it was 372 µM; in data set [4], 411 µM. The Activity entry in data set [3] is “Non-Toxic”; in data set [5], 17%; in [6], 22.5%; in data set [7] it was 31.5%; in [8], “Dose-dependent effect”.

For `O=C(CCCCCCCCc1ccc(O)c(O)c1)c1c(O)cccc1O` [MALABARICONE C], the IC50 worked out at 10.6 µM in data set [1], 43.6 µM in [2] and 15 µM in [4]. Besides, the Activity entry in data set [3] is “Non-Toxic”; in [5], 17%; in data set [6], 18.3%; in [7], 23.9%; in [8], “Dose-dependent effect”.

In the case of `C[C@H]1O[C@H](O[C@H]2[C@H](O)[C@@H](O)[C@@H](O[C@H]3[C@H](O)[C@@H](O)C(O)O[C@@H]3CO)O[C@@H]2CO)[C@H](O)[C@@H](O)[C@@H]1N[C@H]1C=C(CO)[C@@H](O)[C@H](O)[C@H]1O` (some centres not stated) [ACARBOSE], in [2], the IC50 came to 66.6 µM.

Consider `O=C(CCCCCCCCc1ccccc1)c1c(O)cccc1O` [MALABARICONE A], for which the IC50 in [1] worked out at 19.1 µM; in [2], 91.4 µM; in data set [4], 19.3 µM. Further, the Activity result in data set [3] is “Non-Toxic”; in [5], 32.9%; in [6], 33.4%; in data set [7] it was 36.7%; in [8] it was “Dose-dependent effect”.

Take `O=C(CCCCCCCCc1ccc(O)cc1)c1c(O)cccc1O` [MALABARICONE B]: the values for the concentration for half-maximal inhibition (IC50) in data set [1], in data set [2] and in data set [4] were 12.9 µM, 63.7 µM and 40.3 µM, respectively. Moreover, the Activity in data set [5] was 37.5%; in data set [6], 45.8%; in data set [7], 52.7%; in [8] it was “Dose-dependent effect”.
